{"source": "the NIST ThermoML archive (doi:10.1021/acs.jced.8b00554)", "conditions": "Liquid, Vibrating tube method", "note": "± gives the expanded uncertainty stated by the source.", "data": [{"smiles": "CCCO", "note": "[propan-1-ol]", "values": [{"measurement": "mass density", "setting": "343.15 K, 100 kPa", "result": "761.6 ± 4.6", "unit": "kg/m3"}, {"measurement": "mass density", "setting": "343.15 K, 1010 kPa", "result": "762.86 ± 4.6", "unit": "kg/m3"}, {"measurement": "mass density", "setting": "343.15 K, 2020 kPa", "result": "763.91 ± 4.6", "unit": "kg/m3"}, {"measurement": "mass density", "setting": "343.15 K, 3000 kPa", "result": "764.93 ± 4.6", "unit": "kg/m3"}, {"measurement": "mass density", "setting": "343.15 K, 4020 kPa", "result": "765.95 ± 4.6", "unit": "kg/m3"}, {"measurement": "mass density", "setting": "343.15 K, 5020 kPa", "result": "766.96 ± 4.6", "unit": "kg/m3"}, {"measurement": "mass density", "setting": "343.15 K, 6020 kPa", "result": "767.95 ± 4.6", "unit": "kg/m3"}, {"measurement": "mass density", "setting": "343.15 K, 7030 kPa", "result": "768.93 ± 4.6", "unit": "kg/m3"}, {"measurement": "mass density", "setting": "343.15 K, 8020 kPa", "result": "769.91 ± 4.6", "unit": "kg/m3"}, {"measurement": "mass density", "setting": "343.15 K, 9000 kPa", "result": "770.86 ± 4.6", "unit": "kg/m3"}, {"measurement": "mass density", "setting": "343.15 K, 10020 kPa", "result": "771.81 ± 4.6", "unit": "kg/m3"}, {"measurement": "mass density", "setting": "343.15 K, 11030 kPa", "result": "772.74 ± 4.6", "unit": "kg/m3"}, {"measurement": "mass density", "setting": "343.15 K, 12020 kPa", "result": "773.67 ± 4.7", "unit": "kg/m3"}, {"measurement": "mass density", "setting": "343.15 K, 13010 kPa", "result": "774.59 ± 4.7", "unit": "kg/m3"}, {"measurement": "mass density", "setting": "343.15 K, 14000 kPa", "result": "775.49 ± 4.7", "unit": "kg/m3"}, {"measurement": "mass density", "setting": "343.15 K, 15010 kPa", "result": "776.39 ± 4.7", "unit": "kg/m3"}, {"measurement": "mass density", "setting": "343.15 K, 16020 kPa", "result": "777.28 ± 4.7", "unit": "kg/m3"}, {"measurement": "mass density", "setting": "343.15 K, 17020 kPa", "result": "778.16 ± 4.7", "unit": "kg/m3"}, {"measurement": "mass density", "setting": "343.15 K, 18000 kPa", "result": "779.02 ± 4.7", "unit": "kg/m3"}, {"measurement": "mass density", "setting": "343.15 K, 19020 kPa", "result": "779.89 ± 4.7", "unit": "kg/m3"}, {"measurement": "mass density", "setting": "343.15 K, 20010 kPa", "result": "780.74 ± 4.7", "unit": "kg/m3"}, {"measurement": "mass density", "setting": "353.15 K, 100 kPa", "result": "752.39 ± 4.5", "unit": "kg/m3"}, {"measurement": "mass density", "setting": "353.15 K, 1010 kPa", "result": "753.65 ± 4.5", "unit": "kg/m3"}, {"measurement": "mass density", "setting": "353.15 K, 2010 kPa", "result": "754.76 ± 4.5", "unit": "kg/m3"}, {"measurement": "mass density", "setting": "353.15 K, 2990 kPa", "result": "755.86 ± 4.5", "unit": "kg/m3"}, {"measurement": "mass density", "setting": "353.15 K, 4000 kPa", "result": "756.96 ± 4.5", "unit": "kg/m3"}, {"measurement": "mass density", "setting": "353.15 K, 5000 kPa", "result": "758.04 ± 4.5", "unit": "kg/m3"}, {"measurement": "mass density", "setting": "353.15 K, 6000 kPa", "result": "759.1 ± 4.6", "unit": "kg/m3"}, {"measurement": "mass density", "setting": "353.15 K, 7010 kPa", "result": "760.14 ± 4.6", "unit": "kg/m3"}, {"measurement": "mass density", "setting": "353.15 K, 7990 kPa", "result": "761.16 ± 4.6", "unit": "kg/m3"}, {"measurement": "mass density", "setting": "353.15 K, 8990 kPa", "result": "762.2 ± 4.6", "unit": "kg/m3"}, {"measurement": "mass density", "setting": "353.15 K, 9990 kPa", "result": "763.21 ± 4.6", "unit": "kg/m3"}, {"measurement": "mass density", "setting": "353.15 K, 11010 kPa", "result": "764.2 ± 4.6", "unit": "kg/m3"}, {"measurement": "mass density", "setting": "353.15 K, 12010 kPa", "result": "765.19 ± 4.6", "unit": "kg/m3"}, {"measurement": "mass density", "setting": "353.15 K, 13000 kPa", "result": "766.16 ± 4.6", "unit": "kg/m3"}, {"measurement": "mass density", "setting": "353.15 K, 14010 kPa", "result": "767.13 ± 4.6", "unit": "kg/m3"}, {"measurement": "mass density", "setting": "353.15 K, 15010 kPa", "result": "768.07 ± 4.6", "unit": "kg/m3"}, {"measurement": "mass density", "setting": "353.15 K, 16010 kPa", "result": "769.01 ± 4.6", "unit": "kg/m3"}, {"measurement": "mass density", "setting": "353.15 K, 17010 kPa", "result": "769.94 ± 4.6", "unit": "kg/m3"}, {"measurement": "mass density", "setting": "353.15 K, 17990 kPa", "result": "770.86 ± 4.6", "unit": "kg/m3"}, {"measurement": "mass density", "setting": "353.15 K, 18990 kPa", "result": "771.76 ± 4.6", "unit": "kg/m3"}, {"measurement": "mass density", "setting": "353.15 K, 19990 kPa", "result": "772.67 ± 4.6", "unit": "kg/m3"}, {"measurement": "mass density", "setting": "363.15 K, 100 kPa", "result": "743.01 ± 4.5", "unit": "kg/m3"}, {"measurement": "mass density", "setting": "363.15 K, 1020 kPa", "result": "744.08 ± 4.5", "unit": "kg/m3"}, {"measurement": "mass density", "setting": "363.15 K, 2030 kPa", "result": "745.28 ± 4.5", "unit": "kg/m3"}, {"measurement": "mass density", "setting": "363.15 K, 3030 kPa", "result": "746.48 ± 4.5", "unit": "kg/m3"}, {"measurement": "mass density", "setting": "363.15 K, 4020 kPa", "result": "747.65 ± 4.5", "unit": "kg/m3"}, {"measurement": "mass density", "setting": "363.15 K, 5000 kPa", "result": "748.81 ± 4.5", "unit": "kg/m3"}, {"measurement": "mass density", "setting": "363.15 K, 6020 kPa", "result": "749.94 ± 4.5", "unit": "kg/m3"}, {"measurement": "mass density", "setting": "363.15 K, 7020 kPa", "result": "751.07 ± 4.5", "unit": "kg/m3"}, {"measurement": "mass density", "setting": "363.15 K, 8010 kPa", "result": "752.18 ± 4.5", "unit": "kg/m3"}, {"measurement": "mass density", "setting": "363.15 K, 9000 kPa", "result": "753.27 ± 4.5", "unit": "kg/m3"}, {"measurement": "mass density", "setting": "363.15 K, 10030 kPa", "result": "754.35 ± 4.5", "unit": "kg/m3"}, {"measurement": "mass density", "setting": "363.15 K, 11010 kPa", "result": "755.41 ± 4.5", "unit": "kg/m3"}, {"measurement": "mass density", "setting": "363.15 K, 12010 kPa", "result": "756.47 ± 4.5", "unit": "kg/m3"}, {"measurement": "mass density", "setting": "363.15 K, 13010 kPa", "result": "757.5 ± 4.5", "unit": "kg/m3"}, {"measurement": "mass density", "setting": "363.15 K, 14000 kPa", "result": "758.53 ± 4.6", "unit": "kg/m3"}, {"measurement": "mass density", "setting": "363.15 K, 15020 kPa", "result": "759.54 ± 4.6", "unit": "kg/m3"}, {"measurement": "mass density", "setting": "363.15 K, 16010 kPa", "result": "760.54 ± 4.6", "unit": "kg/m3"}, {"measurement": "mass density", "setting": "363.15 K, 17030 kPa", "result": "761.52 ± 4.6", "unit": "kg/m3"}, {"measurement": "mass density", "setting": "363.15 K, 18010 kPa", "result": "762.51 ± 4.6", "unit": "kg/m3"}, {"measurement": "mass density", "setting": "363.15 K, 19000 kPa", "result": "763.47 ± 4.6", "unit": "kg/m3"}, {"measurement": "mass density", "setting": "363.15 K, 20020 kPa", "result": "764.42 ± 4.6", "unit": "kg/m3"}]}]}
